The values below are quoted from earlier work in patent US20180177744A1, “METHOD OF TREATING PAIN AND […] A HYBRID MIXTURE OF S-KETAMINE AND R-KETAMINE” (priority 2016, published 2018).

Read-outs that look alike come from different tables or passages of the source.

The conditions of data set [1]: liquid formulation at 30 mg to 50 mg, intranasal (IN) route.
The conditions of data set [2]: in vivo.
The conditions of data set [3]: mice; versus esketamine.
For data set [4] the following is noted: for anaesthetic potency relative to arketamine (R-isomer): clinically, versus arketamine.
Assay in data set [5]: not given
This is another data set of the same source.

A further data set deals with dopamine transporters. The note with it: versus arketamine.
Data set [6] deals with phencyclidine binding sites on the NMDA receptors. The note with it: versus arketamine.

Chain of dopamine transporters (Q01959 whole entry): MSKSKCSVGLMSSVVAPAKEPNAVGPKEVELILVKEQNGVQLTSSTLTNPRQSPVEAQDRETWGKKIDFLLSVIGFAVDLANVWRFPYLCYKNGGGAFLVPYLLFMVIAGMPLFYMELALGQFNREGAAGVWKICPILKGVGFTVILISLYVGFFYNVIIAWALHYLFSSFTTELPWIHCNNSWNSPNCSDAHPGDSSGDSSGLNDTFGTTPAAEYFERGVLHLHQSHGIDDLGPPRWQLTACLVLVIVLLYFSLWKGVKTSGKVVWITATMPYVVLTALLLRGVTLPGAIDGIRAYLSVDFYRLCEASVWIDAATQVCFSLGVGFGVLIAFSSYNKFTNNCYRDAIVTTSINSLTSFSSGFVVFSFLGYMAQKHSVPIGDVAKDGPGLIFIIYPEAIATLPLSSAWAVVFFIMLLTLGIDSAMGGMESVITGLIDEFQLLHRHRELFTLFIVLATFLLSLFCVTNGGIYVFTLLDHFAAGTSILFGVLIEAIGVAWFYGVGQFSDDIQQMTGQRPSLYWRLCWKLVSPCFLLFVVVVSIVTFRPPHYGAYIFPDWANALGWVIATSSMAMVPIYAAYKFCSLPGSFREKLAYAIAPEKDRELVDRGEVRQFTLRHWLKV

With `CNC1(c2ccccc2Cl)CCCCC1=O` (racemic) [racemic ketamine, 2-(2-chlorphenyl)-2-(methylamino)-cyclohexanone], the “ability to stop acute and/or breakthrough pain” value in [1] is listed as “stop acute and/or breakthrough pain”.
Take `CN[C@@]1(c2ccccc2Cl)CCCCC1=O` [arketamine, R(−)-ketamine]: the “glucose metabolism in the brain” value in data set [2] was “decreases glucose metabolism in the brain”. Where the note is “in vivo”, the psychotomimetic effects result is “devoid of psychotomimetic effects”. In addition, the rapid antidepressant effect entry in [3] was “greater and lasted longer than that of esketamine”.
For `CN[C@]1(c2ccccc2Cl)CCCCC1=O` [esketamine, S(+)-ketamine], the results for the “anaesthetic potency relative to arketamine (R-isomer)” value in data set [4] and in [4] (listed as S(+)ketamine) were 3-4 times and “three to four times”, respectively. The “anesthetic potency relative to racemic ketamine” value in [4] (versus racemic ketamine) is “two times”. In the data set with sigma receptors, the “binding to sigma receptors” value is listed as “does not bind significantly”. Further, in [2], the “glucose metabolism in the brain” value is recorded as “increases glucose metabolism in the frontal cortex”. Further, the “elimination from the human body” value in data set [5] is reported as “more quickly than arketamine (R(−)-ketamine) or racemic ketamine”. Further, the “inhibition of dopamine transporters relative to arketamine” value in the data set with dopamine transporters was “eight times more”. The “affinity for the PCP binding site of the NMDA receptor relative to arketamine” value in [6] (listed as Esketamine) is 3-4 times; in [6] (listed as S(+)ketamine) it was “three to four times greater”. Besides, the “recovery of cerebral functions” value (after anaesthesia, study persons) is recorded as “more rapid recovery of cerebral functions”.
